Measured values as given in patent US5436254A, “Carbostyril derivatives” (Otsuka Pharmaceutical Company, Ltd., priority 1989, dated 1995).

The molecules below were run against V1 receptor (Rattus norvegicus, UniProt P30560) (assay: biochemical). Conditions: not given.
Assay type: binding

Chain of V1 receptor (P30560 whole entry): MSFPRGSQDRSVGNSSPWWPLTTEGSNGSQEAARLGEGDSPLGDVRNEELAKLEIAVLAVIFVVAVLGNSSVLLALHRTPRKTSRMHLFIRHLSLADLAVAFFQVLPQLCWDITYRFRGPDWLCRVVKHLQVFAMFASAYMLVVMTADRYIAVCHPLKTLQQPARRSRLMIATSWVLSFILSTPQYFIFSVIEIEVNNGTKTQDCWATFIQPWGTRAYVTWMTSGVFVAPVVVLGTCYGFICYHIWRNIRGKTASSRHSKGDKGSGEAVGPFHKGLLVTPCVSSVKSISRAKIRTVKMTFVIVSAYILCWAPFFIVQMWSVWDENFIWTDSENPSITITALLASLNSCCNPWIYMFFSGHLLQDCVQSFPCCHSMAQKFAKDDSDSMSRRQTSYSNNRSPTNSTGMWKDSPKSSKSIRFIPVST

Structure (SMILES)	IC50
N[C@@H](Cc1ccc(O)cc1)C(=O)NCCCOc1ccc(C(=O)N2CCC(N3C(=O)CCc4ccccc43)CC2)cc1 [Example 223, 1-[1-{4-[3-(S)-Tyrosylaminopropoxy]benzoyl}-4-piperidinyl]-3,4-dihydrocarbostyril]	72 nM
CCNC(=O)NCCCOc1ccc(C(=O)N2CCC(N3C(=O)CCc4ccccc43)CC2)cc1 [Example 198, 1-{1-[4-(3-Ethylaminocarbonylaminopropoxy)benzoyl]-4-piperidinyl}-3,4-dihydrocarbostyril]	320 nM
O=C(CCCCCOc1ccc(C(=O)N2CCC(N3C(=O)CCc4ccccc43)CC2)cc1)NC1CCN(Cc2ccccc2)CC1 [Example 200, 1-{1-[4-(5-(1-Benzyl-4-piperidinyl)aminocarbonylpentyloxy)benzoyl]-4-piperidinyl}-3,4-dihydrocarbostyril]	34 nM
O=C(c1ccc(OCCCCCCO)cc1)N1CCC(N2C(=O)CCc3ccccc32)CC1 [Example 128, 1-{1-[4-(6-Hydroxyhexyloxy)benzoyl]-4-piperidinyl}-3,4-dihydrocarbostyril]	230 nM
O=C(c1ccc(OCCCCn2cccc2)cc1)N1CCC(N2C(=O)CCc3ccccc32)CC1 [Example 125, 1-[1-{4-[4-(1-pyrrolyl)butoxy]benzoyl}-4-piperidinyl]-3,4-dihydrocarbostyril]	590 nM
O=CNCCCOc1ccc(C(=O)N2CCC(N3C(=O)CCc4ccc(F)cc43)CC2)cc1 [Example 145, 1-{1-[4-(3-Formylaminopropoxy)benzoyl]-4-piperidinyl}-7-fluoro-3,4-dihydrocarbostyril]	170 nM
CCOC(=O)NCCCOc1ccc(C(=O)N2CCC(N3C(=O)CCc4ccccc43)CC2)cc1 [Example 168, 1-{1-[4-(3-Ethoxycarbonylaminopropoxy)benzoyl]-4-piperidinyl}-3,4-dihydrocarbostyril]	190 nM
O=C(c1ccc(N2CCCC2)cc1)N1CCC(N2C(=O)CCc3ccccc32)CC1 [Example 91, 1-{1-[4-(1-Pyrrolidinyl)benzoyl]-4-piperidinyl}-3,4-dihydrocarbostyril]	720 nM
O=C(c1ccc(OCCCCCCN2CCCCC2)cc1)N1CCC(N2C(=O)CCc3ccccc32)CC1 [Example 243, 1-{1-(4-[6-(1-Piperidinyl)hexyloxy]benzoyl)-4-piperidinyl}-3,4-dihydrocarbostyril]	39 nM
CCOc1ccc(C(=O)N2CCC(N3C(=O)C(C(=O)O)Cc4ccccc43)CC2)c(OC)c1 (stereo not shown) [Example 152, 1-[1-(2-Methoxy-4-ethoxybenzoyl)-4-piperidinyl]-3-carboxy-3,4-dihydrocarbostyril]	1600 nM
O=C(c1ccc(OCCCCN2CCNCC2)cc1)N1CCC(N2C(=O)CCc3ccccc32)CC1 [Example 157, 1-{1-[4-[4-(1-Piperazinyl)butoxy]benzoyl]-4-piperidinyl}-3,4-dihydrocarbostyril.dioxalate]	90 nM
Nc1ccc(S(=O)(=O)CCCCCOc2ccc(C(=O)N3CCC(N4C(=O)CCc5ccccc54)CC3)cc2)cc1 [Example 286, 1-{1-(4-[5-(4-Aminophenylsulfonyl)pentyloxy]benzoyl)-4-piperidinyl}-3,4-dihydrocarbostyril]	150 nM
O=C(c1ccc(OCCCCCN2CCCC2)cc1OCCCCCN1CCCC1)N1CCC(N2C(=O)CCc3ccccc32)CC1 [Example 291]	98 nM
O=C(CO)NCCCCCOc1ccc(C(=O)N2CCC(N3C(=O)CCc4ccccc43)CC2)cc1 [Example 230, 1-[1-(4-[5-(2-Hydroxyacetylamino)pentyloxy]benzoyl)-4-piperidinyl)-3,4-dihydrocarbostyril]	180 nM
COc1ccc(C(=O)N2CCC(N3C(=O)CCc4ccccc43)CC2)c(OCCCOC(C)=O)c1 [Example 64, 1-{1-[2-(3-Acetoxypropoxy)-4-methoxybenzoyl]-piperidinyl}-3,4-dihydrocarbostyril]	460 nM
O=C(Nc1ccccc1)N1CCN(CCCOc2ccc(C(=O)N3CCC(N4C(=O)CCc5ccccc54)CC3)cc2)CC1 [Example 135, 1-[1-{4-[3-(4-Anilinocarbonyl-1-piperazinyl)propoxy]benzoyl}-4-piperidinyl]-3,4-dihydrocarbostyril]	200 nM
CCOc1ccc(C(=O)N2CCC(N3C(=O)CCc4c(C)cccc43)CC2)c(OC)c1 [Example 216, 5-Methyl-1-[1-(2-methoxy-4-ethoxybenzoyl)-4-piperidinyl]-3,4-dihydrocarbostyril]	41 nM
O=C(c1ccc(OCCCNS(=O)(=O)c2ccccc2)cc1)N1CCC(N2C(=O)CCc3ccccc32)CC1 [Example 169, 1-{1-[4-(3-Phenylsulfonylaminopropoxy)benzoyl]-4-piperidinyl}-3,4-dihydrocarbostyril]	170 nM
CCOC(=O)CNC(=O)CCCOc1ccc(C(=O)N2CCC(N3C(=O)CCc4ccccc43)CC2)cc1 [Example 8, 1-{1-[4-(3-Ethoxycarbonylmethylaminocarbonylpropoxy)benzoyl]-4-piperidinyl}-3,4-dihydrocarbostyril]	300 nM
COc1ccc(C(=O)N2CCC(N3C(=O)CCc4ccccc43)CC2)c(O)c1 [Example 60, 1-[1-(2-Hydroxy-4-methoxybenzoyl)-4-piperidinyl]-3,4-dihydrocarbostyril]	200 nM
C=CC[N+](C)([O-])CCCCCOc1ccc(C(=O)N2CCC(N3C(=O)CCc4ccccc43)CC2)cc1 (stereo not shown) [Example 246, N-{5-[4-(4-(3,4-Dihydrocarbostyril-1-yl)-1-piperidinylcarbonyl)phenoxy]pentyl}, N-methyl, N-allylamine oxide]	290 nM
CCSc1nccn1-c1ccc(C(=O)N2CCC(N3C(=O)CCc4ccccc43)CC2)cc1 [Example 89, 1-{1-[4-(2-Ethylthioimidazol-1-yl)benzoyl]-4-piperidinyl)-3,4-dihydrocarbostyril]	1600 nM
CC(C)[C@H](NC(=O)CCCCCOc1ccc(C(=O)N2CCC(N3C(=O)CCc4ccccc43)CC2)cc1)C(N)=O [Example 147, 1-{1-[4-{5-[1-(S)-Carbamoyl-2-methyl]propylaminocarbonylpentyloxy}benzoyl]-4-piperidinyl}-3,4-dihydrocarbostyril]	98 nM
CCN(C)c1cc(OC)ccc1C(=O)N1CCC(N2C(=O)CCc3ccccc32)CC1 [Example 58, 1-{1-[2-(N-Methyl-N-ethylamino)-4-methoxybenzoyl]-4-piperidinyl}-3,4-dihydrocarbostyril]	450 nM
O=C(c1ccc(OCCCCCN2CCCCC2CO)cc1)N1CCC(N2C(=O)CCc3ccccc32)CC1 (stereo not shown) [Example 241, 1-{1-(4-[5-(2-Hydroxymethyl-1-piperidinyl)pentyloxy]benzoyl)-4-piperidinyl}-3,4-dihydrocarbostyril]	21 nM
CC(=O)OCCCCCCOc1ccc(C(=O)N2CCC(N3C(=O)CCc4ccccc43)CC2)cc1 [Example 130, 1-{1-[4-(6-Acetoxyhexyloxy)benzoyl]-4-piperidinyl}-3,4-dihydrocarbostyril]	390 nM
NC(=O)[C@H](Cc1ccc(O)cc1)NC(=O)CCCCCOc1ccc(C(=O)N2CCC(N3C(=O)CCc4ccccc43)CC2)cc1 [Example 146, 1-{1-[4-{5-[1-(S)-Carbamoyl-2-(4-hydroxyphenyl)]ethylaminocarbonylpentyloxy}benzoyl]-4-piperidinyl}-3,4-dihydrocarbostyril]	73 nM

Same assay, conditions: [H]3-Arg-vasopressin 2×10^-10 M, rat liver plasma membrane, 37° C., 10 minutes, pH 8.0

Structure (SMILES)	IC50
O=C(c1ccc(OCCCCCn2cncn2)cc1)N1CCC(N2C(=O)CCc3ccccc32)CC1 [Example 237]	75 nM
